Reference: patent US9493446B2, “Orexin receptor antagonists which are [ortho bi-(hetero-)aryl]-[2-(meta bi-(hetero-)aryl)-pyrrolidin-1-yl]-methanone derivatives” (Actelion Pharmaceuticals Ltd, priority 2012, dated 2016)
Like-named read-outs stand apart in the source and are kept apart here.

Legend:
orexin-1 [1] = molecular target: T1, orexin-1 (Homo sapiens (Human), UniProt O43613); details: cited from earlier work
humans = details: primary insomnia; cited from earlier work
rat [2] = details: cited from earlier work
rats = details: cited from earlier work
rat [3] = details: cited from earlier work; remark: listed apart in the source
[4] = tested on: amyloid precursor protein transgenic mice; details: after acute sleep restriction, APP transgenic mice; cited from earlier work
mouse = details: administered chronically; cited from earlier work
fasted hungry rats = fasted hungry rats exposed to food odors; cited from earlier work
rat [5] = details: cited from earlier work; remark: listed apart in the source
orexin-1 [6] = molecular target: T1, orexin-1; assay: Intracellular calcium measurement (FLIPR), CHO cells expressing human orexin-1 receptor, 3 nM orexin-A; assay type: cell-based; details: CHO cells expressing human orexin-1 receptor, FLIPR, 3 nM orexin-A; geometric mean if determined several times; read-out: IC50 OX1
Procedure, shortened: (§1)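 CHO transfectants were dye-loaded (fluo-4 AM, probenecid) and exposed to antagonist for 120 min ahead of agonist.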

human orexin-2 receptor = human orexin-2 receptor (Homo sapiens (Human), UniProt O43614); assay: Intracellular calcium measurement (FLIPR), CHO cells expressing human orexin-2 receptor, 3 nM orexin-A; assay type: cell-based; details: CHO cells expressing human orexin-2 receptor, FLIPR, 3 nM orexin-A; geometric mean if determined several times; read-out: IC50 OX2
Procedure, shortened: as §1

[7] = Measurement of brain and systemic concentration after oral administration; assay type: in vivo; details: rat, 3 h after oral administration (100 mg/kg), n=3, male wistar rats;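 on concentration in plasma [P]: unit ng/mL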
Procedure: Measurement of Brain and Systemic Concentration after Oral Administration:
In order to assess brain penetration, the concentration of the compound is measured in plasma ([P]), and brain ([B]), sampled 3 h (or at different time points) following oral administration (e.g. 100 mg/kg) to male wistar rats. The compounds are formulated e.g. in 100% PEG 400. Samples are collected in the same animal at the same time point (+/−5 min). Blood is sampled from the vena cava caudalis into containers with EDTA as anticoagulant and centrifuged to yield plasma. Brain is sampled after cardiac perfusion of 10 mL NaCl 0.9% and homogenized into one volume of cold phosphate buffer (pH 7.4). All samples are extracted with MeOH and analyzed by LC-MS/MS. Concentrations are determined with the help of calibration curves.

Wistar rats = assay: Sleep effects: EEG, EMG and behavioural indices of alertness by radiotelemetry; assay type: in vivo; details: effects analyzed over 12 hours, compared to vehicle controls
Procedure: Sleep Effects: EEG, EMG and Behavioural Indices of Alertness Recorded by Radiotelemetry In Vivo in Wistar Rats.
Electroencephalography (EEG) and Electromyography (EMG) signals were measured by telemetry using TL11M2-F20-EET miniature radiotelemetric implants (Data Science Int.) with two pairs of differential leads.
Surgical implantation was performed under general anesthesia with Ketamin/Xylazin, for cranial placement of one differential pair of EEG electrodes and one pair of EMG leads inserted in either side of the muscles of the neck. After surgery, rats recovered in a thermoregulated chamber and received analgesic treatment with subcutaneous buprenorphine twice a day for 2 d. They were then housed individually and allowed to recover for a minimum of 2 weeks. Thereafter, rats—in their home cage—were placed in a ventilated sound-attenuating box, on a 12-h light/12-h dark cycle, for acclimatization before continuous EEG/EMG recordings started. The telemetric technology that we used in this study allows accurate and stress-free acquisition of biosignals in rats placed in their familiar home cage environment, with no recording leads restricting their movements. Variables analyzed included four different stages of vigilance and sleep, spontaneous activity in the home cage and body temperature. Sleep and wake stages were evaluated using a rodent scoring software (Somnologica Science) directly processing electrical biosignals on 10 s contiguous epochs. The scoring is based on frequency estimation for EEG and amplitude discrimination for EMG and locomotor activity. Using these measurements, the software determines the probability that all components within each epoch best represent active waking (AW), quiet waking (QW), non-REM-sleep (NREM) or REM-sleep (REM). The percentage of total time spent in AW, QW, NREM- and REM-sleep was calculated per 12 h light or dark period. The latency to the onset of the first significant NREM- and REM-sleep episodes and the number and duration of those episodes were also calculated. AW, QW, NREM- and REM-sleep, home cage activity and body temperature were measured at baseline for at least one total circadian cycle (12 h-night, 12 h-day) before a test compound was administered. […] All variables were subsequently recorded for 12 h following administration of the orexin receptor antagonist.

rodents [8] = details: conditioned reinforcer; cited from earlier work
rodents [9] = details: cited from earlier work
[10] = brain, read-out: concentration in brain [B]
[11] = plasma, read-out: concentration in plasma [P]

T1 sequence (O43613 whole entry): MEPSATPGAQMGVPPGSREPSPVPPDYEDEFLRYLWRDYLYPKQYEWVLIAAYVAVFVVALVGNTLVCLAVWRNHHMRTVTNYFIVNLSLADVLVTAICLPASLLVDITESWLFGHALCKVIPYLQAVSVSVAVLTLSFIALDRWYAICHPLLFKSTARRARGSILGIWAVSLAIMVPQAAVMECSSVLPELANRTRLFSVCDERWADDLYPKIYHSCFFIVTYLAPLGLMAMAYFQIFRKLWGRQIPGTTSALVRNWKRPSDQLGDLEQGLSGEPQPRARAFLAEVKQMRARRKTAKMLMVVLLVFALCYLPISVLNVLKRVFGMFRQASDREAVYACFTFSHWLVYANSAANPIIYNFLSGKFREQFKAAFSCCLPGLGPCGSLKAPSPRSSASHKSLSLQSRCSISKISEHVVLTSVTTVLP
Chain of human orexin-2 receptor (O43614 whole entry): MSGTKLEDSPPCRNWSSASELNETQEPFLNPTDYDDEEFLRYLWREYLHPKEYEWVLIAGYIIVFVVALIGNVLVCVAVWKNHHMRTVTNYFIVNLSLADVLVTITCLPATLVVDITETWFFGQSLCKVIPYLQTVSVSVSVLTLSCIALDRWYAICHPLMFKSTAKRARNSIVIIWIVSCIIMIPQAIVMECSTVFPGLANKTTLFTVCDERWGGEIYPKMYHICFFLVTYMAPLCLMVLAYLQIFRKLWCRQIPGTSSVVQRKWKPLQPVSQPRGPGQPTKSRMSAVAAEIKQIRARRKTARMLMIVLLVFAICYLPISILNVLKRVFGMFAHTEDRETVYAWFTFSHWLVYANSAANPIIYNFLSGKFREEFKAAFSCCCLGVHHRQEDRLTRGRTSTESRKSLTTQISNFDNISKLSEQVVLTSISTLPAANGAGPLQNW

For `Cc1nc(C(=O)N2CCC[C@H]2Cc2nnc(-c3ccccc3)o2)c(-c2ccccc2F)s1` [1-(5-(2-fluoro-phenyl)-2-methyl-thiazol-4-yl)-1-[(S)-2-(5-phenyl-[1,3,4]oxadiazol-2-ylmethyl)-pyrrolidin-1-yl)-methanone], the orexin receptor selectivity (orexin-1 [1]) is listed as “highly orexin-1 selective”.

For `CNC(=O)[C@@H](c1ccccc1)N1CCc2cc(OC)c(OC)cc2[C@@H]1CCc1ccc(C(F)(F)F)cc1` [(2R)-2-{(1S)-6,7-dimethoxy-1-[2-(4-trifluoromethyl-phenyl)-ethyl]-3,4-dihydro-1H-isoquinolin-2-yl}-N-methyl-2-phenyl-acetamide], the clinical efficacy (humans) is listed as “showed clinical efficacy”, the “alertness (active wake and locomotion)” value (rat [2]) is listed as “decrease alertness” and the “time spent in REM and NREM sleep” value (rat [2]) is listed as “dose-dependently increase the time spent in both REM and NREM sleep”. The “cardiovascular responses to conditioned fear and novelty exposure” value (rats) was “attenuated cardiovascular responses to conditioned fear and novelty exposure”, the “activity in fear-potentiated startle paradigm” value (rat [3]) was “active” and the “brain levels of amyloid-beta and plaque deposition” value [4] was “decreased brain levels of amyloid-beta (Aβ) as well as Aβ plaque deposition”. The antidepressant-like activity (mouse) was “induce antidepressant-like activity”, the “natural activation induced by orexin A” value (fasted hungry rats) was “attenuate the natural activation induced by orexin A” and the “pharmacological activity in nicotine self-administration” value (rat [5]) was “displayed pharmacological activity”.

Work on `COc1cc(C(=O)N2CCC[C@H]2c2noc(-c3ccccc3OC(F)(F)F)n2)c(-n2nccn2)cc1C` [Example 308, (5-Methoxy-4-methyl-2-[1,2,3]triazol-2-yl-phenyl)-{(S)-2-[5-(2-trifluoromethoxy-phenyl)-[1,2,4]oxadiazol-3-yl]-pyrrolidin-1-yl}-methanone] yielded an IC50 (orexin-1 [6]) of 22 nM, an IC50 (human orexin-2 receptor) of 4 nM and a concentration at 3 h [7, 10] of 1580 ng/g. For the same molecule, the concentration at 3 h [7, 11] was 1760 ng/mL, the “effect on NREM sleep” value (Wistar rats; 100 mg/kg po) was “+14.3%” and the “effect on REM sleep” value (Wistar rats; 100 mg/kg po) was “+35.2%”. The “effect on active wake” value (Wistar rats; 100 mg/kg po) was −24.0% and the “effect on home cage activity” value (Wistar rats; 100 mg/kg po) was −41.4%.

`C[C@@]1(c2nnc(-c3ccccc3OC(F)(F)F)[nH]2)CCCN1C(=O)c1ccc(Cl)cc1-n1nccn1` [Example 544, (4-Chloro-2-[1,2,3]triazol-2-yl-phenyl)-{(S)-2-methyl-2-[5-(2-trifluoromethoxy-phenyl)-4H-[1,2,4]triazol-3-yl]-pyrrolidin-1-yl}-methanone] showed an IC50 (orexin-1 [6]) of 5 nM, an IC50 (human orexin-2 receptor) of 6 nM and a concentration at 3 h [7, 10] of 1120 ng/g. The concentration at 3 h [7, 11] was 1070 ng/mL, the “effect on NREM sleep” value (Wistar rats; 30 mg/kg po) was “+19.4%” and the “effect on REM sleep” value (Wistar rats; 30 mg/kg po) was “+5.6%”. For the same molecule, the “effect on active wake” value (Wistar rats; 30 mg/kg po) was −9.6% and the “effect on home cage activity” value (Wistar rats; 30 mg/kg po) was −18.5%.

For `Cn1c(SCC(=O)N2CCC[C@H]2C(=O)Nc2ccccc2-c2ccccc2)nc2ccccc21` [N-Biphenyl-2-yl-1-{[(1-methyl-1H-benzimidazol-2-yl)sulfanyl]acetyl}-L-prolinamide], the nicotine-reinstatement (rodents [8]) is listed as “inhibited nicotine-reinstatement for a conditioned reinforcer” and the “behavioral and molecular changes induced by repeated amphetamine” value (rodents [9]) is listed as “reduced behavioral (locomotor sensitization) and molecular (transcriptional responses) changes”.
